According to BindingDB's records for patent US20230286970 (Italfarmaco, 2023):

Columns and labels:
[1] = target: T1, Histone deacetylase 6 (Homo sapiens, UniProt Q9UBN7); test: Enzymatic Activity Assay
T1 sequence (Q9UBN7 whole entry): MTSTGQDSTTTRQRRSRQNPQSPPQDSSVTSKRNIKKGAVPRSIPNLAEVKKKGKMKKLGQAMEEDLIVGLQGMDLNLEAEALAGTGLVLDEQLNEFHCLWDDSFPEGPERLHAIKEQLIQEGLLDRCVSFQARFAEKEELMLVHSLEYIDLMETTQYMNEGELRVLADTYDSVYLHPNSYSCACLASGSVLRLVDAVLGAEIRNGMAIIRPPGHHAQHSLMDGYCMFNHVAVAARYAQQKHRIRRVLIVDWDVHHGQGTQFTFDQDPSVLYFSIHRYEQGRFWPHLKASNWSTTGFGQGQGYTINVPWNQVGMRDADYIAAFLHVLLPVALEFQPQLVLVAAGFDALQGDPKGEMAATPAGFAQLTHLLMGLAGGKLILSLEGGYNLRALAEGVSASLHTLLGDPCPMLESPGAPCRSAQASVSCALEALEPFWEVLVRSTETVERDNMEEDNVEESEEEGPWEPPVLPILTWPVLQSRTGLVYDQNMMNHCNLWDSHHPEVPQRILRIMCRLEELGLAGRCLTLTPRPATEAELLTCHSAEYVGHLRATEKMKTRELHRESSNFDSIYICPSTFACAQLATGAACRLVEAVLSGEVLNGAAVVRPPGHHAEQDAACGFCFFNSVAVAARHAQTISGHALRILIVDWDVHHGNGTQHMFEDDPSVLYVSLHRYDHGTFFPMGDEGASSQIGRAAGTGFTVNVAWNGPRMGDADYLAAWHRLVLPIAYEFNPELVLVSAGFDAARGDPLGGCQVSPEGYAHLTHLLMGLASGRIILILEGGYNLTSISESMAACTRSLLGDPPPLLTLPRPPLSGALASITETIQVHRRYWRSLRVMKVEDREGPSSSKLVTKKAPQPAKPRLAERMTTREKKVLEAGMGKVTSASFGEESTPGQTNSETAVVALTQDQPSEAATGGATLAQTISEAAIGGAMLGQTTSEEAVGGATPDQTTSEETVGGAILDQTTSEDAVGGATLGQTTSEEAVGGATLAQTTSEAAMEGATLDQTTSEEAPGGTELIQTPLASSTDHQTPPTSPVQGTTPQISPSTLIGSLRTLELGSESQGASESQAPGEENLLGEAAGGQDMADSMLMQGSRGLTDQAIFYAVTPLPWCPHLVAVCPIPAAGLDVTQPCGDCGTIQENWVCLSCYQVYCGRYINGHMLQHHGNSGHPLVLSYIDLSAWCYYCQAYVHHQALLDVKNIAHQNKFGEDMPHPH
Experimental: (§1) After a period of preincubation (incubation times and temperatures vary for different isoforms and are shown in table 1) 25 μL of solution containing the substrate were added. […] Enzymatic activity on recombinant human HDAC6 and HDAC1 was evaluated (Table 2) for each synthesized compound.

[2] = target: Histone deacetylase 1 (Homo sapiens, UniProt Q13547); test: Enzymatic Activity Assay
Experimental: as §1

Sequence of Histone deacetylase 1 (Q13547 whole entry): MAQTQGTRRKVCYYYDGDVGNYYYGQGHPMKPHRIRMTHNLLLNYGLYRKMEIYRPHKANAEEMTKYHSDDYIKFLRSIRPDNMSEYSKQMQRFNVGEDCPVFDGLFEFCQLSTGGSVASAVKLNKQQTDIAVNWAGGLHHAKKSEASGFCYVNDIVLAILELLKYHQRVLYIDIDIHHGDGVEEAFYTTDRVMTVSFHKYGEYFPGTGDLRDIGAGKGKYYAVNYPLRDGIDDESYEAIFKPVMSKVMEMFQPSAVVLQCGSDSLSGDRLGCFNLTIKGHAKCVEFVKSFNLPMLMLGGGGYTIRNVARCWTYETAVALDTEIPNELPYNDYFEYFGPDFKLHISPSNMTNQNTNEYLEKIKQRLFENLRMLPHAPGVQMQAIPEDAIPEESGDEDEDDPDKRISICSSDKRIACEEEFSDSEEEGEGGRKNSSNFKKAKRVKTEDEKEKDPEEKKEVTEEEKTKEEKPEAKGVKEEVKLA

IC50 [1] [nM]	IC50 [2] [nM]	SMILES
154	> 200000	CN(C)C(=Nc1ccc(-c2cn(Cc3ccc(-c4nnc(C(F)F)o4)cc3)nn2)cc1)N(C)C [US20230286970, Compound 217]
377	–	C[C@@H](c1ccc(-c2nnc(C(F)F)o2)cc1)n1cc(-c2ccc(N)nc2)nn1 [US20230286970, Compound 255]
480	> 200000	O=C(O)c1cccc(-c2nnn(Cc3ccc(-c4nnc(C(F)F)o4)cc3)n2)c1 [US20230286970, Compound 260]
373	> 200000	O=C(O)c1cccc(-c2cn(Cc3ccc(-c4nnc(C(F)F)o4)cc3)nn2)c1 [US20230286970, Compound 275]
225	> 200000	CCN(Cc1cn(Cc2c(F)cc(-c3nnc(C(F)F)o3)cc2F)nn1)C(=O)Nc1cccnc1OC [US20230286970, Compound 283]
99	> 200000	COc1ncc(NCc2ccc(-n3cc(Cc4ccc(-c5nnc(C(F)F)o5)cc4)nn3)cc2)cc1C(N)=O [US20230286970, Compound 286]
63	–	Nc1ncnc2sc(-c3cn(Cc4ccc(-c5nnc(C(F)F)o5)c(F)c4F)nn3)cc12 [US20230286970, Compound 384]
247	–	CN(C)c1ccc2cc(-c3cn(Cc4c(F)cc(-c5nnc(C(F)F)o5)cc4F)nn3)ccc2n1 [US20230286970, Compound 399]
515	–	Nc1ccc(-n2cc(Cc3ccc(-c4nnc(C(F)F)o4)cc3)nn2)cn1 [US20230286970, Compound 413]
49	–	Nc1ncnc2sc(-c3cn(Cc4cc(F)c(-c5nnc(C(F)F)o5)cc4F)nn3)cc12 [US20230286970, Compound 415]

Second part, the molecule before the results:

SMILES	IC50 [1] [nM]	IC50 [2] [nM]
NC(=O)c1cccc(-c2nnn(Cc3ccc(-c4nnc(C(F)F)o4)cn3)n2)c1 [US20230286970, Compound 29]	10	> 200000
NCc1ccc(-c2nnn(Cc3c(F)cc(-c4nnc(C(F)F)o4)cc3F)n2)cc1 [US20230286970, Compound 33]	14	> 200000
Nc1ncc(-c2cccc(-c3nnn(Cc4ccc(-c5nnc(C(F)F)o5)cn4)n3)c2)s1 [US20230286970, Compound 38]	18	> 200000
NCc1ccc(-c2cn(Cc3c(F)cc(-c4nnc(C(F)F)o4)cc3F)nn2)cc1 [US20230286970, Compound 44]	20	163000
Nc1ccc(-c2cn(Cc3ccc(-c4nnc(C(F)F)o4)cc3)nn2)cn1 [US20230286970, Compound 52]	23	–
O=C1NCc2ccc(-c3nnn(Cc4ccc(-c5nnc(C(F)F)o5)cc4)n3)cc21 [US20230286970, Compound 55]	24	> 200000
Oc1ccc(-c2nnn(Cc3ccc(-c4nnc(C(F)F)o4)cc3)n2)cc1 [US20230286970, Compound 56]	25	> 200000
O=C1NCc2ccc(-c3nnn(Cc4c(F)cc(-c5nnc(C(F)F)o5)cc4F)n3)cc21 [US20230286970, Compound 57]	25	> 200000
C[C@H](c1ccc(-c2nnc(C(F)F)o2)cc1)n1cc(-c2ccc(N)nc2)nn1 [US20230286970, Compound 106]	41	–
O=C1Nc2ccc(-c3nnn(Cc4ccc(-c5nnc(C(F)F)o5)cc4)n3)cc2NC12CCCCC2 [US20230286970, Compound 157]	70	> 200000
FC(F)c1nnc(-c2cnc(Cn3nnc(-c4cccs4)n3)nc2)o1 [US20230286970, Compound 187]	41	> 200000
